3 compounds from patent US20240150301A1, “METHODS OF MODULATING ANDROGEN RECEPTOR CONDENSATES” (ETERN BIOPHARMA (SHANGHAI) CO., LTD., priority 2021, published 2024) can be followed below.

Structures are written as SMILES. “Also recorded” adds a separate entry of the source.

Holding throughout (format): cell-based
In experiment [1] the target is T1, AR V7 (Homo sapiens, UniProt P10275).
T1 sequence (P10275 1-644 isoform P10275-3): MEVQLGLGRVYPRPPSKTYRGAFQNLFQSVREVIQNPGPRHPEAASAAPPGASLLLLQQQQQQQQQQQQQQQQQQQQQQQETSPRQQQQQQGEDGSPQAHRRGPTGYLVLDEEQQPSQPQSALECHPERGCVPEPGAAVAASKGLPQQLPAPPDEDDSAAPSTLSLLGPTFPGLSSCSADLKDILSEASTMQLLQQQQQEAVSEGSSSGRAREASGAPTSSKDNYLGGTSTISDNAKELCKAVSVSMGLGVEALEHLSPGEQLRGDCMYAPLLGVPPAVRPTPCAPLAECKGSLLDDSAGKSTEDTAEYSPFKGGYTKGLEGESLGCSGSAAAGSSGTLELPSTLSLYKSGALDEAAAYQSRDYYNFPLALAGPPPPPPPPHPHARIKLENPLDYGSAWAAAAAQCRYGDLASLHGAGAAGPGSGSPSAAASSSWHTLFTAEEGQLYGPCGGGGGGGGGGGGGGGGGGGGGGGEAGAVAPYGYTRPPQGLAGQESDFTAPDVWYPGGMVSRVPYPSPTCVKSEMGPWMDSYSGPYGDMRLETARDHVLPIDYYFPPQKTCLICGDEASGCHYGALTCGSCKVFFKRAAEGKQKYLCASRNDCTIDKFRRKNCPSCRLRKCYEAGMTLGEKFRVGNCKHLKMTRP
In words: Live-cell imaging of AR puncta (LLPS) in LNCaP cells, AR V7-mEGFP. More on the design: expressed in transfected cells; host or cells: LNCaP. Particulars: 10 μM compound, no DHT. On the procedure:
Cells were grown on 24-well glass bottom plate (Cellvis, P24-1.5H-N) and images were taken with the Leica TCS SP8 confocal microscopy system using a 100× oil objective (NA=1.4). Cells were imaged on a heated stage (37° C.) and supplemented with warmed (37° C.) humidified air. The microscope was enclosed in an incubation chamber heated to 37° C.
For compounds treatment assay, LNCaP cells were transfected with an expression vector for AR (AR or AR F877L/T878A)-mEGFP using steroid hormone-free and phenol red-free RPMI media for 24 hours before compound treatment. After 10 μM compounds treatment for 3 hour, LNCaP cells were added with 1 nM DHT. For ligand-independent AR V7-mEGFP expressing LNCaP cells, starvation step is skipped and compounds were added 12 hours after transfection. The final concentration of DMSO was 0.1%. Cells were subjected to microscopic observation every 30 mins after DHT/compounds were added.
Data was analyzed by images collected from 100 representative fields in each group. The spots quantification was performed based on the area and intensity of the spots through green (AR-mEGFP) channel. Fluorescent images were processed and assembled into figures using LAS X (Leica) and Fiji.
After 10 μM compounds treatment for 3 hour, LNCaP cells were added with 1 nM DHT. […]

The test system of experiment [2] is LNCaP cells. In words: Cell proliferation assay (CellTiter-Glo), LNCaP. Particulars: Homo sapiens, 96 h, 0.2 nM DHT, 4 days, read-out: LNCaP IC50 AR-positive (cell proliferation). On the procedure: (§1) To evaluate the effect of exemplary compounds on proliferation of AR/AR-V7-dependent prostate cancer cells, cell viability assay was performed in LNCaP (AR-positive), 22Rv1 (AR-positive; AR-V7 positive), VCaP (AR-positive; AR-V7 positive), and DU145 (AR-negative) cells, respectively.
(§2) LNCaP cells were seeded in charcoal stripped FBS/phenol red-free RPMI medium in 96-well plates for 24 h before pretreating for 1 h with test compounds prior to addition of 0.2 nM DHT for 4 days. 22Rv1 or VCaP cells were cultured in charcoal stripped FBS/phenol red-free RPMI medium for 24 h before addition of test compounds for 4 days. DU145 cells were seeded in complete medium for 24 h before addition of test compounds for 4 days. Cell proliferation was measured with CellTiter-Glo® Luminescent Cell Viability Assay (Promega). In LNCaP cells, DHT-dependent cell growth is calculated by measuring the difference between vehicle control (DMSO) cells treated with or without 0.2 nM DHT. The IC50 values were determined using the four parameter fit via GraphPad Prism graphing software.
A general note: Cellular ATP, detected with luciferase, serves as a proxy for viable cell number.

In experiment [3] the test system is 22Rv1 cells. In words: Cell proliferation assay (CellTiter-Glo), 22Rv1. Particulars: Homo sapiens, 22Rv1, 96 h; 4 days; read-out: 22Rv1 IC50 AR-positive; AR-V7 positive (cell proliferation). On the procedure: as §1, §2
The subject of experiment [4] is DU145 cells. In words: Cell proliferation assay (CellTiter-Glo), DU145. The conditions noted are these: Homo sapiens, DU-145, 96 h; 4 days; read-out: DU145 IC50 AR-negative (cell proliferation). On the procedure: as §1, §2
Experiment [5] deals with T1, AR V7. In words: ARE-luciferase reporter assay in 22Rv1 cells (endogenous AR-V7). More on the design: 22Rv1(Cobioer) prostate cancer cell line, which expresses endogenous AR-V7; host or cells: 22Rv1. The conditions noted are these: 22Rv1, hormone-starved, 24 h; read-out: 22Rv1 ARE-luc IC50. On the procedure: The ARE-luciferase reporter plasmid contains functional AREs (androgen response elements) to which AR binds in response to androgen to induce luciferase activity. LNCaP (Cobioer) cells were transiently transfected with the ARE-luciferase reporter in charcoal stripped FBS/phenol red-free RPMI medium prior to treatment for 24 hours. Then DMSO or test compounds with serial diluted concentrations were added one hour prior to the addition of DHT(1 nM). After 24 h of incubation with DHT, cells were lysed and luciferase activity was assayed using the ONE-Glo™ Luciferase Assay System (Promega) and measured using EnVision Multimode Plate Reader, according to manufacturer's instructions. Values were normalized to cell viability determined by CellTiter-Glo® Luminescent Cell Viability Assay Kit (Promega). […] GraphPad Prism graphing software was used to calculate IC50 values.
To evaluate the transcriptional activity of AR-V7, HEK293T(Cobioer) cells were transiently cotransfected with an expression vector for AR-V7 and the ARE-luciferase reporter in hormone-starved conditions. For 22Rv1(Cobioer) prostate cancer cell line, which expresses endogenous AR-V7, ARE-luciferase reporter was transiently transfected in hormone-starved conditions. 24 h after transfection, DMSO or test compounds with serial diluted concentrations were added for additional 24 h incubation. Reporter activity was detected and normalized by cell viability as described above. Treatments were normalized to DMSO control activity, and IC50 values were further determined via GraphPad Prism graphing software.
On the technique in general: In a reporter assay the amount or activity of a reporter protein is the signal.

Experiment [6] deals with VCaP cells. In words: Cell proliferation assay (CellTiter-Glo), VCaP. The conditions noted are these: Homo sapiens, 96 h, 4 days, read-out: VCaP IC50 AR-positive, AR-V7 positive (cell proliferation). On the procedure: as §1, §2

`CC(C)(c1ccc(C#Cc2cnc(NS(C)(=O)=O)nc2)cc1)c1cc(Cl)c(OCCCl)c(C#N)c1` [Compound 60, N-(5-((4-(2-(3-chloro-4-(2-chloroethoxy)-5-cyanophenyl)propan-2-yl)phenyl)ethynyl)pyrimidin-2-yl)methanesulfonamide]: the “puncta formation / LLPS of AR V7” value in experiment [1] is “could suppress the phase separation; also recorded: abolished the puncta formation; also recorded: significantly impaired the LLPS”.
As for `CC(C)(c1ccc(OCc2ccnc(N=S3(=O)CCNCC3)n2)cc1)c1cc(Cl)c(OCCCl)c(C#N)c1` [Compound 6, 3-chloro-2-(2-chloroethoxy)-5-(2-(4-((2-((1-oxido-1λ^6-thiomorpholin-1-ylidene)amino)pyrimidin-4-yl)methoxy)phenyl)propan-2-yl)benzonitrile], the IC50 in experiment [2] was 0.86 µM; in experiment [3], 3.24 µM; in experiment [4], more than 20 µM; in experiment [5], 8.6 µM.
As for `CC(C)(c1ccc(OCc2ccnc(NS(C)(=O)=O)n2)cc1)c1cc(Cl)c(OCCCl)c(C#N)c1` [Compound AA, N-(4-((4-(2-(3-chloro-4-(2-chloroethoxy)-5-cyanophenyl)propan-2-yl)phenoxy)methyl)pyrimidin-2-yl) methane sulfonamide, reference compound], the IC50 was 7.01 µM in experiment [2]; more than 20 µM in experiment [3]; more than 20 µM in experiment [6]; 17.2 µM in experiment [4]; more than 20 µM in experiment [5].
